Where “and” joins values, the source holds several entries; their conditions need not be identical. Equal values may be shown once. Numbers after ± are expanded uncertainties.
Legend:
[1] = of the first substance listed, at infinite dilution; xn = mol fraction of the nth substance listed; conditions: 101 kPa, Liquid, flow mixing microcalorimeter, x1 = 0
[2] = activity coefficient (dimensionless); of the first substance listed, at infinite dilution; xn = mol fraction of the nth substance listed; conditions: 101 kPa, Liquid, inert gas stripping, headspace analysis in two variants - the classical and the relative, Rayleigh distillation, and circulation still, x1 = 0

SMILES	partial molar enthalpy ([1]; 288.15 K) [kcal/mol]	partial molar enthalpy ([1]; 298.15 K) [kcal/mol]	partial molar enthalpy ([1]; 308.15 K) [kcal/mol]	activity coefficient ([2]; 273.35 K)	activity coefficient ([2]; 283.15 K)	activity coefficient ([2]; 293.15 K)	activity coefficient ([2]; 303.15 K)	activity coefficient ([2]; 313.15 K)	activity coefficient ([2]; 323.15 K)	activity coefficient ([2]; 333.15 K)	activity coefficient ([2]; 343.15 K)	activity coefficient ([2]; 353.15 K)	activity coefficient ([2]; 363.15 K)	activity coefficient ([2]; 361.25 K)	activity coefficient ([2]; 371.45 K)	activity coefficient ([2]; 371.15 K)
CCC(C)CO (stereo unspecified) [2-methyl-1-butanol] + O	-2.67 ± 0.0956	-1.98 ± 0.0478	-1.29 ± 0.0239	86.3 ± 5.2	117 ± 7	138 and 134	158 and 151	163 and 173	180 and 173	170 and 179	169 ± 10	160 ± 10	162 ± 10			
CCC(C)(C)O [2-methylbutan-2-ol] + O				18.3 ± 1.1	24.5 ± 1.5	31.7 and 34.6	41.3 and 39.2	49 and 46.5	52.3 and 56.9	59.3 and 61.4	64.2 ± 3.9	67.1 ± 4		75.4 ± 4.5	73.9 ± 4.4	
CC(C)C(C)O (stereo unspecified) [3-methyl-2-butanol] + O				43.5 ± 2.6	61.5 ± 3.7	73.9 ± 4.4	86.5 ± 5.2	96.6 ± 5.8	104 ± 6	110 ± 7	111 ± 7	107 ± 6				108 ± 7
CC(C)CCO [3-methylbutan-1-ol] + O				94.9 ± 5.7	126 ± 8	148 and 146	161 and 164	173 and 175	179 and 184	182 and 178	179 ± 11	164 ± 10				149 ± 9
CCC(O)CC [3-pentanol] + O				48.7 ± 2.9	63.1 ± 3.8	75.6 ± 4.5	88.7 ± 5.3	101 ± 6	108 ± 7	116 ± 7	111 ± 7	120 ± 7	117 ± 7			104 ± 6
CCCC(C)O (stereo unspecified) [pentan-2-ol] + O				58.8 ± 3.5	73.9 ± 4.4	89.2 and 86.1	104 and 103	119 ± 7	129 ± 8	134 ± 8	134 ± 8	124 ± 7	130 ± 8			118 ± 7

— the NIST ThermoML archive (doi:10.1021/je901063s)
